Key:
[1] = tested on: Calu-6 (lung carcinoma) tumour xenografts; test: Calu-6 xenograft model: ZD6474 25 mg/kg given after ionising radiation; assay type: in vivo, female Alderley Park nude mice
Experimental: Calu-6 (lung carcinoma) cells were obtained from the American Type Culture Collection (Manassas, Va.). All cell culture reagents, where not specified, were obtained from Life Technologies, Paisley, UK. Cells were maintained as exponentially growing monolayers in Eagle's Minimal Essential Medium (EMEM) containing 10% FCS (Labtech International, Ringmer, UK), 2 mM L-glutamine (Sigma Chemical Co., Poole, UK), 1% sodium pyruvate (100 mM) and 1% non-essential amino acids. Cells were periodically screened for the presence of microplasma in culture, and analysed for 15 types of virus in a mouse antibody production test (AstraZeneca Central Toxicology Laboratories, Alderley Park, UK) prior to routine use in vivo.
Calu-6 cells (2×10^7 cells/ml) were prepared for implantation in a mixture of 50% (v/v) matrigel (Fred Baker, Liverpool, UK) in serum free Roswell Park Memorial Institute (RPMI)-1640 media. Tumour xenografts were established by subcutaneously injecting 0.1 ml of the cell suspension (i.e. 2×10^6 cells/mouse) into female Alderley Park nude mice (nu/nu genotype; 8-10 weeks of age). Once a palpable tumour was evident, tumour volume was assessed daily by calliper measurement and calculated using the formula, length×width×height.
Mice were randomised into groups of eight, prior to treatment, when tumours measured 225-315 mm^3. Ionising radiation, where given, was administered at a dose rate of 2 Gy per min to unanaesthetised mice restrained in polyvinyl jigs with lead shielding and a cut away section to allow local irradiation of the tumour by the unilateral beam (Pantac X-ray set). Jigs were turned through 180° halfway through the radiation exposure time to provide a uniform dosing. Radiation was administered either as a single dose (5 Gy on day 1) or by multiple daily dosing (2 Gy/day on days 1-3). Thirty minutes after the last dose of radiation, ZD6474 (25 mg/kg), or vehicle, was administered by oral gavage (0.1 ml/10 g body weight) and then once-daily thereafter for a further 13 days (i.e. 14 days of oral treatment in total). ZD6474 was prepared as a suspension in 1% polysorbate 80 (i.e. a 1% (v/v) solution of polyoxyethylene (20) sorbitan mono-oleate in deionised water). Mice were humanely killed when the relative volume of their tumour reached four times that at the initiation of therapy (RTV4). A two-tailed two-sample t-test was used to evaluate the significance of the results obtained.

Calu-6 tumours = test: Calu-6 xenograft model: schedules, ZD6474 50 mg/kg concurrent or sequential with radiotherapy; assay type: in vivo, mice; conditions: for Growth delay (days ± SE): RTV4 relative to control
Experimental: In an analogous experiment using the Calu-6 xenograft model described hereinbefore different schedules were investigated.
Mice bearing Calu-6 tumours (220-300 mm^3) were randomized into groups of eight, to receive either ZD6474 (50 mg/kg p.o. once daily) or vehicle only (1% polysorbate in deionized water) for the duration of the experiment. ZD6474, or vehicle, was also administered with or without radiotherapy (3×2 Gy at 24-hour intervals during the first 3 days of treatment). Where mice received 50 mg/kg ZD6474 plus radiation therapy, two treatment schedules were examined. • a) Concurrent combination treatment: ZD6474 dosing given 2 hours prior to the first dose of radiation; and • b) Sequential combination treatment: ZD6474 dosing given 30 minutes after the last dose of radiotherapy. […]
Treatment efficacy was assessed by measuring the time for tumours to quadruple in volume (RTV4) from their pretreatment size and calculating the relative growth delay (i.e. comparing RTV4 values from individual treated groups, with that of the control).

Q: With `COc1cc2c(Nc3ccc(Br)cc3F)ncnc2cc1OCC1CCN(C)CC1` [ZD6474, 4-(4-bromo-2-fluoroanilino)-6-methoxy-7-(1-methylpiperidin-4-ylmethoxy)quinazoline] as the compound, how does the “RTV4” value ([1]; 3 × 2Gy (days 1-3), then ZD6474 25 mg/kg/day oral for 14 days post-irradiation) read?
A: 28.1 days

Q: What about the “Therapeutic effect of radiation plus ZD6474 versus either therapy alone” value ([1]; 5 Gy or 3×2 Gy plus ZD6474 25 mg/kg) of the same compound?
A: better therapeutic effect than either therapy alone

Q: And the “RTV4” value ([1]; 5 Gy single dose on day 1, then ZD6474 25 mg/kg/day oral for 14 days post-irradiation)?
A: 25.5 days

Q: What about the “RTV4” value ([1]; ZD6474 25 mg/kg/day oral for 14 days, no radiation, time for tumour to reach four times its volume at initiation of therapy) of the same compound?
A: 12.1 days

Q: And the “Growth delay of combination versus either single treatment” value (Calu-6 tumours; 50 mg/kg ZD6474 combined with 3×2 Gy radiation)?
A: significantly greater than that of either single treatment alone

Q: What about the “RTV4 (days ± SE)” value (Calu-6 tumours; 50 mg/kg ZD6474 p.o. once daily, no radiation, n = 8) of the same compound?
A: 17 ± 1.0 days

Q: What about the “Growth delay (days ± SE)” value (Calu-6 tumours; 50 mg/kg ZD6474 p.o. once daily, no radiation) of the same compound?
A: 9 ± 1.1 days

Q: What about the “Growth delay (days ± SE)” value (Calu-6 tumours; 3 × 2 Gy plus 50 mg/kg ZD6474 (concurrent)) of the same compound?
A: 22 ± 1.1 days

Q: What about the “RTV4 (days ± SE)” value (Calu-6 tumours; 3 × 2 Gy plus 50 mg/kg ZD6474 (concurrent: dosing begun 2 hours prior to first dose of radiation)) of the same compound?
A: 30 ± 1.0 days

Q: And the “Growth delay (days ± SE)” value (Calu-6 tumours; 3 × 2 Gy plus 50 mg/kg ZD6474 (sequential))?
A: 36 ± 1.0 days

Q: And the “RTV4 (days ± SE)” value (Calu-6 tumours; 3 × 2 Gy plus 50 mg/kg ZD6474 (sequential: dosing begun 30 minutes after last dose of radiotherapy))?
A: 44 ± 0.9 days

Q: What about the “Tumour growth inhibition, sequential versus concurrent combination” value (Calu-6 tumours; 3×2 Gy radiation and 50 mg/kg ZD6474) of the same compound?
A: inhibited tumour growth significantly more than when the same agents were combined concurrently

Q: What about the “Antitumour effect of sequential combination versus sum of individual therapies” value (Calu-6 tumours; sequential 3×2 Gy radiation and 50 mg/kg ZD6474) of the same compound?
A: greater than the sum of the growth delays induced by the individual therapies

From US20050222183A1, “Combination of zd6474, an inhibitor of the vascular endothelial growth factor receptor, with radiotherapy in the treatment of cancer” (priority 2002, published 2005)
